# Reference: patent publication US4366143A, “Assay for the free portion of substances in biological fluids” (Amersham International Public Limited Company, priority 1979, dated 1982)
# Read-outs that look alike come from different tables or passages of the source.
# What was measured:
# serum albumin = details: U.S. Pat. No. 4,069,305; cited from earlier work
# [1] = system: solid phase T4 specific antibody; test: Binding of labelled T4 derivatives to solid phase T4 antibody with and without thiomersal (Example 7); design: species or system sheep; details: 125I-labelled T4 derivative
# Experimental: (§1) The dominant binding protein for T4 in serum is TBG, and the binding site for T4 on this protein may be blocked by adding an appropriate concentration of thiomersalate to the buffer.
# (§2) The labelled T4 derivative was dissolved in 0.01 molar phosphate, pH 7.4 containing 0.9% sodium chloride and 0.1% gelatin to give a radioactive concentration of approximately 0.05 microcuries per milliliter. In the part of the experiment where the blocking agent was used, this buffer contained 1.8% thiomersal.
# (§3) A solid phase T4 specific antibody was used that consisted of a pre-precipitated double antibody complex made by reacting sheep anti-T4 serum and donkey anti-rabbit gamma globulin serum in the abovementioned phosphate buffer. A concentration of this solid phase T4 antibody suspension was chosen that bound approximately 50% of ^125 I-T4 tracer in the presence of blocking agent under the experimental conditions used.
# (§4) The binding of the labelled T4 derivatives was tested as follows:
# (§5) 50 μl human serum (depleted of T4 by resin extraction)
# (§6) 500 μl labelled T4 derivative (with or without blocking agent)
# (§7) 1.0 ml solid phase T4 antibody suspension
# (§8) Tubes were incubated for 2 hours at 37° C. and then centrifuged to settle the solid phase antibody. The supernatant solution was decanted and the radioactivity in the solid phase measured.
# TBG [2] = target: T1, TBG (Homo sapiens, UniProt P05543); test: Binding of T4 derivatives to TBG, from antibody binding in presence and absence of blocking agent (Example 7)
# T1 sequence (P05543 21-415): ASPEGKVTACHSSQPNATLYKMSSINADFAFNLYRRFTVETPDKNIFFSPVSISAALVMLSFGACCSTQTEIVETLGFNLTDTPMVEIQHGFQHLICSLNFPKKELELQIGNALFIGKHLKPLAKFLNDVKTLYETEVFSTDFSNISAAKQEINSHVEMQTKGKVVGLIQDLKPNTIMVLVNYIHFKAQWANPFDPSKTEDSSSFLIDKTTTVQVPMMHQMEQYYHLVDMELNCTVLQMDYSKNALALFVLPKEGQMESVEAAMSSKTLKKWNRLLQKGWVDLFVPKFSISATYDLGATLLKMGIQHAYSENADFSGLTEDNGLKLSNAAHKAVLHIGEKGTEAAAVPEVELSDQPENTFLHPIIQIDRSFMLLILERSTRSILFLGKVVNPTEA
# Experimental: as §1, §2, §3, §4, §5, §6, §7, §8
# The right-hand column of the above table sets out the ratio of the figures in the two other columns. As a rule of thumb, it may be said that this ratio should be at least 0.6, preferably at least 0.9 for the compound tested to be worth considering for use in the free T4 assay. It should be noted, however, that these figures are valid only for the free T4 assay and not necessarily for other free ligand assays.
# antibodies = details: cited from earlier work
# TBG [3] = details: cited from earlier work
# TBPA = details: cited from earlier work
# transcortin = target: T2, transcortin (Homo sapiens, UniProt P08185); test: Binding of cortisol tracers to serum proteins / transcortin with and without ANS (Example 4); details: for % Tracer Bound to Serum Proteins (Corrected for Non-Specific Binding): charcoal extracted human serum
# T2 construct: charcoal extracted human serum; from tissue; host or cells: human serum, charcoal extracted (unpurified)
# T2 sequence (P08185 23-405): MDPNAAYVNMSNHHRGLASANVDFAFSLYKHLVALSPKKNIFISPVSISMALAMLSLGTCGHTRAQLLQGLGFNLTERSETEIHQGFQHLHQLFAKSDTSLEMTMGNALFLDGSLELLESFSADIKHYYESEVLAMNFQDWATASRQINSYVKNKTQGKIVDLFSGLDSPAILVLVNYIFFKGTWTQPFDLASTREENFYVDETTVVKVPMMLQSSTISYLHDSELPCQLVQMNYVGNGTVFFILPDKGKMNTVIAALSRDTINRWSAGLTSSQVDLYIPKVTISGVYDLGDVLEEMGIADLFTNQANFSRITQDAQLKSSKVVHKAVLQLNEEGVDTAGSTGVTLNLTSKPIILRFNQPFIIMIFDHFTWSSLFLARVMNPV
# Experimental: The protocol was as follows:
# B. 200 μl buffer (containing either 0 or 600 μg of 8-anilinonaphthalene sulphonic acid (ANS) as a cortisol binding site blocking agent).
# A mixture of A and B was incubated at 37° C. for one hour. […] The reaction tubes were mixed for one hour at room temperature. A 0.5 ml aliquot of the supernatant was then removed for counting.
# [4] = system: rabbit anti-cortisol serum
# Experimental: This experiment is designed to test the binding of cortisol-3-carboxymethyloxime-histamine-I^125 tracer with an antiserum raised to a cortisol-3-carboxymethyloxime-thyroglobulin conjugate. The protocol was as follows:
# 50 μl of serum was mixed with 200 μl of cortisol-3-carboxymethyloxime-histamine-I^125 tracer solution. The specific activity of the tracer was 3.9 curies per milligram. The tracer concentration was 125 picomolar. The buffer contained 28 g/l Na2 HPO4.12H2 O, 4.6 g/l citric acid monohydrate, 9 g/l NaCl, 3 g/l E.D.T.A. disodium salt, 0.5 g/l NaN3, 1 g/l gelatin and 1 g/l of 8-anilinonaphthalene sulphonic acid (the latter to inhibit binding of cortisol to transcortin and albumin).
# To the mixture of tracer and serum, 200 μl of a suspension of polystyrene latex particles (0.9 micron diameter) coated with the rabbit anti-cortisol serum was added. The buffer was 28 g/l Na2 HPO4.12H2 O, 4.6 g/l citric acid monohydrate, 0.5 g/l NaN3 and 2 g/l bovine serum albumin. The effective antiserum dilution in the assay tube was 1/20000.
# The resulting mixture was vortexed and incubated at 37° C. for 1 hour. The antibody coated particles were centrifuged down at 1500 g for 15 minutes and the liquid phase decanted off.
# [5] = system: antiserum raised to a 21-hemisuccinate-cortisol conjugate to bovine serum albumin; details: heterologous tracer-immunogen pair
compound,measurement,setting,value
C[C@]12CCC(=NOCC(=O)NCCc3c[nH]cn3)C=C1CC[C@@H]1[C@@H]2[C@@H](O)C[C@@]2(C)[C@H]1CC[C@]2(O)C(=O)CO,binding to serum albumin relative to cortisol (in words),serum albumin,binds much less strongly to serum albumin than cortisol itself
"N[C@H](Cc1cc(I)c(Oc2cc(I)c(O)c(I)c2)c(I)c1)C(=O)O [D-T4, D-Thyroxine]",% of T4 derivative bound to antibody,[1]; Thiomersal absent,24%
same,% of T4 derivative bound to antibody,[1]; Thiomersal present,50%
same,"Ratio (% bound to antibody, thiomersal absent / present)",TBG [2],0.48
same,binding to TBG (in words),TBG [2],bound less by TBG
same,suitability of TBG binding reduction for free-T4 assay (in words),TBG [2],not reduced enough for consideration as a T4 derivative for a free-T4 assay
same,binding to antibodies relative to L-Thyroxine / T4 (in words),antibodies,binds as strongly to antibodies as does the naturally occurring L-Thyroxine
same,binding to TBG relative to L-Thyroxine / T4 (in words),TBG [3],substantially less than that of L-Thyroxine
same,binding to TBPA relative to L-Thyroxine / T4 (in words),TBPA,substantially less than that of L-Thyroxine
cortisol-3-carboxymethyloxime-histamine I^125,binding to transcortin (in words),transcortin,binds very weakly to transcortin
same,% Tracer Bound to Serum Proteins (Corrected for Non-Specific Binding),transcortin; ANS 0 μg/tube,7%
same,% Tracer Bound to Serum Proteins (Corrected for Non-Specific Binding),transcortin; ANS 600 μg/tube,5%
same,displacement from transcortin by ANS blocking agent (in words),transcortin; high concentrations of ANS,not significantly displaced by the ANS blocking agent
same,% Radioactivity in the antibody Coated Particles,[4]; Total Plasma Cortisol 0 μg/dl,65.4%
same,% Radioactivity in the antibody Coated Particles,[4]; Total Plasma Cortisol 1 μg/dl,56.6%
same,% Radioactivity in the antibody Coated Particles,[4]; Total Plasma Cortisol 4 μg/dl,43.0%
same,% Radioactivity in the antibody Coated Particles,[4]; Total Plasma Cortisol 10 μg/dl,30.6%
same,% Radioactivity in the antibody Coated Particles,[4]; Total Plasma Cortisol 28 μg/dl,19.2%
same,% Radioactivity in the antibody Coated Particles,[4]; Total Plasma Cortisol 60 μg/dl,12.2%
same,affinity of antiserum for tracer (in words),[5],sufficient affinity
